Data from patent US20190282673A1, “STAPHTAME ACTIVITY ON BIOFILMS” (priority 2016, published 2019).
Read-outs that look alike come from different tables or passages of the source.

Legend:
[1] = test system: S. aureus strains BK18 and B9377; test: Generation and confirmation of antibiotic persisters (CFU over time); type: cell-based, Staphylococcus aureus; details: for CFU/mL, generation of persisters / CFU/mL, confirmation of persisters (regrown, re-exposed): Vancomycin 100X; for CFU/mL, generation of persisters: Daptomycin 50X MIC; for CFU/mL, confirmation of persisters (regrown, re-exposed): Daptomycin 50×; for Drop in CFU at the end of 4 h treatment: generation of persisters
Description: (§1) Persisters of S. aureus BK18 and B9377 and S. epidermidis strain B9470 were generated as per protocol described by Lechner, et al (Staphylococcus aureus persisters tolerant to bactericidal antibiotics. Lechner, et al. (2012) J Mol Microbiol Biotechnol; 22(4):235-44). Briefly, colonies were suspended in LB broth and allowed to grow at 37° C., 200 rpm for ˜2 hours. The cultures were pelleted, resuspended in MHB and OD600 was adjusted to 0.5 to 1.0 OD (˜2 to 5×10^8 CFU/mL). […] The test tubes were incubated at 37° C., 200 rpm, and 250 μL was sampled out at 4, 8, and 24 hr time points. This aliquot was pelleted, washed in saline and resuspended in equal volume of saline, diluted and plated on LB agar. Rapid decrease in CFUs, followed by rather stable values for up to 24 hrs, indicated the presence of Daptomycin/Vancomycin tolerant persisters.
(§2) After sampling for P128 and antibiotic activity, the rest of the sample was pelleted, washed in saline and resuspended into fresh media (LB). Allowed to grow at 37° C., 200 rpm until it reaches 1 OD and then the same steps followed as done for generation of persisters. A biphasic growth curve similar to that obtained during generation of persisters would indicate the tolerance to be phenotypic and not genotypic.

[2] = test system: S. epidermidis strain B9470; test: as above; type: cell-based, Staphylococcus epidermidis; details: for CFU/mL, generation of persisters: Vancomycin 50X, Daptomycin 10X MIC; for CFU/mL, confirmation of persisters (regrown, re-exposed): head prints Vancomycin 100X, Daptomycin 50×
Description: as §1, §2

S. aureus USA300 = test: Mouse model of S. aureus with mucin-enhanced virulence, survival; type: in vivo, BALB/c mice; details: S. aureus USA300 10^9 CFU ip, P128 […] ip, Vancomycin 27.5 mg/kg sc 2 doses, or both
Description: Eight to nine weeks old female BALB/c mice were challenged intraperitoneally with 10^9 CFU of S. aureus USA300. At 2 hours post-infection, animals were treated with either P128 at 2.5 mg/kg intraperitoneally, or vancomycin at 27.5 mg/kg subcutaneously, or combination of both. Groups treated with only vancomycin or combination of P128 and vancomycin were administered with a second dose of vancomycin at 12 hours after the first treatment. At 72 hours post-infection, P128 and vancomycin yielded 56 and 44% survival, respectively.

S. epidermidis = test: MIC and checkerboard synergy (broth microdilution) on planktonic cells; type: cell-based, Staphylococcus epidermidis; details: Staphylococcus epidermidis
Description: Bacterial cultures at a final cell number of 5×10^5 CFU/mL was added to wells of 96-well microtiter plates (precoated with 0.5% BSA), containing two-fold dilutions of P128 and the second drug in cation adjusted Mueller Hinton Broth (CAMHB). The plates were incubated at 37° C. for 24 h and the individual MICs and the combination MICs were read. The fractional inhibitory concentration index (FICI) was determined using the following equation: FICI=(MIC of drug A in the combination/MIC of drug A alone)+(MIC of drug B in the combination/MIC of drug B alone). The combination was considered to be synergistic when the FICI was ≤0.5; additive when FICI was 0.5-1.0; indifferent when FICI was 1-4 and antagonistic when FICI≥4.
S. epidermidis culture at a final cell number of 5×10^5 CFU/mL was added to wells of 96-well microtiter plates (precoated with 0.5% BSA), containing two-fold dilutions of P128 and either Daptomycin or Oxacillin in cation adjusted Mueller Hinton Broth (CAMHB). CAMHB was supplemented with 50 µg/mL Ca^++ for daptomycin assay. The plates were incubated at 37° C. for 24 h and the individual MICs and the combination MICs were read. The fractional inhibitory concentration index (FICI) was determined using the following equation: FICI=(MIC of drug A in the combination/MIC of drug A alone)+(MIC of drug B in the combination/MIC of drug B alone). The combination was considered to be synergistic when the FICI was ≤0.5; additive when FICI was between 0.5-1.0; indifferent when FICI was between 1-4 and antagonistic when FICI was ≥4. The experiments were performed in triplicate and repeated twice.

## CN[C@H](CC(C)C)C(=O)N[C@H]1C(=O)N[C@@H](CC(N)=O)C(=O)N[C@H]2C(=O)N[C@H]3C(=O)N[C@H](C(=O)N[C@H](C(=O)O)c4cc(O)cc(O)c4-c4cc3ccc4O)[C@H](O)c3ccc(c(Cl)c3)Oc3cc2cc(c3O[C@@H]2O[C@H](CO)[C@@H](O)[C@H](O)[C@H]2O[C@H]2C[C@](C)(N)[C@H](O)[C@H](C)O2)Oc2ccc(cc2Cl)[C@H]1O [Vancomycin, vancomycin]
[1]; B9377, 0 h
  CFU/mL, generation of persisters: 2.5 × 10^8 CFU/mL
  CFU/mL, confirmation of persisters (regrown, re-exposed): 1.5 × 10^8 CFU/mL
[1]; B9377, 4 h
  CFU/mL, generation of persisters: 8 × 10^6 CFU/mL
  CFU/mL, confirmation of persisters (regrown, re-exposed): 2 × 10^6 CFU/mL
[1]; B9377, 8 h
  CFU/mL, generation of persisters: 1.9 × 10^6 CFU/mL
  CFU/mL, confirmation of persisters (regrown, re-exposed): 2 × 10^6 CFU/mL
[1]; B9377, 24 h
  CFU/mL, generation of persisters: 1.1 × 10^5 CFU/mL
  CFU/mL, confirmation of persisters (regrown, re-exposed): 8 × 10^5 CFU/mL
[1]; BK18, 0 h
  CFU/mL, generation of persisters: 2 × 10^8 CFU/mL
  CFU/mL, confirmation of persisters (regrown, re-exposed): 1 × 10^8 CFU/mL
[1]; BK18, 4 h
  CFU/mL, generation of persisters: 1 × 10^7 CFU/mL
  CFU/mL, confirmation of persisters (regrown, re-exposed): 2.5 × 10^5 CFU/mL
[1]; BK18, 8 h
  CFU/mL, generation of persisters: 2 × 10^6 CFU/mL
  CFU/mL, confirmation of persisters (regrown, re-exposed): 1 × 10^5 CFU/mL
[1]; BK18, 24 h
  CFU/mL, generation of persisters: 4 × 10^5 CFU/mL
  CFU/mL, confirmation of persisters (regrown, re-exposed): 1 × 10^5 CFU/mL
[1]
  Drop in CFU at the end of 4 h treatment: Approximately two log drop in CFU
[2]; B9470, 0 h
  CFU/mL, generation of persisters: 3.2 × 10^7 CFU/mL
  CFU/mL, confirmation of persisters (regrown, re-exposed): 2 × 10^7 CFU/mL
[2]; B9470, 2 h
  CFU/mL, generation of persisters: 1 × 10^6 CFU/mL
  CFU/mL, confirmation of persisters (regrown, re-exposed): 1 × 10^5 CFU/mL
[2]; B9470, 4 h
  CFU/mL, generation of persisters: 3 × 10^5 CFU/mL
  CFU/mL, confirmation of persisters (regrown, re-exposed): 6 × 10^4 CFU/mL
[2]; B9470, 8 h
  CFU/mL, generation of persisters: 9 × 10^3 CFU/mL
  CFU/mL, confirmation of persisters (regrown, re-exposed): 1.5 × 10^4 CFU/mL
[2]; B9470, 24 h
  CFU/mL, generation of persisters: 3 × 10^4 CFU/mL
  CFU/mL, confirmation of persisters (regrown, re-exposed): 5 × 10^3 CFU/mL
S. aureus USA300
  Survival at 72 h post infection: 43%
S. aureus USA300; listed as vancomycin
  Survival at 72 h post infection: 44%

## CCCCCCCCCC(=O)N[C@@H](Cc1c[nH]c2ccccc12)C(=O)N[C@H](CC(N)=O)C(=O)N[C@@H](CC(=O)O)C(=O)N[C@@H]1C(=O)NCC(=O)N[C@@H](CCCN)C(=O)N[C@@H](CC(=O)O)C(=O)N[C@H](C)C(=O)N[C@@H](CC(=O)O)C(=O)NCC(=O)N[C@H](CO)C(=O)N[C@@H]([C@H](C)CC(=O)O)C(=O)N[C@@H](CC(=O)c2ccccc2N)C(=O)O[C@@H]1C [Daptomycin, daptomycin]
S. epidermidis; ATCC12228, S. epidermidis ATCC 12228, read-out: MIC (drug alone)
  MIC: 1 µg/mL
S. epidermidis; S. epidermidis B9467, read-out: MIC (drug alone)
  MIC: 2 µg/mL
S. epidermidis; S. epidermidis B9468, read-out: MIC (drug alone)
  MIC: 0.5 µg/mL
S. epidermidis; S. epidermidis B9471, read-out: MIC (drug alone)
  MIC: 2 µg/mL
S. epidermidis; S. epidermidis B9472, read-out: MIC (drug alone)
  MIC: 2 µg/mL
S. epidermidis; S. epidermidis strains of Tables 7 and 8, read-out: MIC over the strains
  MIC: 0.5 to 2 µg/mL
[1]; B9377, 0 h
  CFU/mL, generation of persisters: 2.5 × 10^8 CFU/mL
  CFU/mL, confirmation of persisters (regrown, re-exposed): 2.5 × 10^8 CFU/mL
[1]; B9377, 4 h
  CFU/mL, generation of persisters: 4 × 10^3 CFU/mL
  CFU/mL, confirmation of persisters (regrown, re-exposed): 6 × 10^3 CFU/mL
[1]; B9377, 8 h
  CFU/mL, generation of persisters: 1 × 10^3 CFU/mL
  CFU/mL, confirmation of persisters (regrown, re-exposed): 1 × 10^3 CFU/mL
[1]; B9377, 24 h
  CFU/mL, generation of persisters: 5.5 × 10^3 CFU/mL
  CFU/mL, confirmation of persisters (regrown, re-exposed): 9 × 10^2 CFU/mL
[1]; BK18, 0 h
  CFU/mL, generation of persisters: 2 × 10^8 CFU/mL
  CFU/mL, confirmation of persisters (regrown, re-exposed): 1 × 10^8 CFU/mL
[1]; BK18, 4 h
  CFU/mL, generation of persisters: 3 × 10^3 CFU/mL
  CFU/mL, confirmation of persisters (regrown, re-exposed): 3 × 10^2 CFU/mL
[1]; BK18, 8 h
  CFU/mL, generation of persisters: 1 × 10^3 CFU/mL
  CFU/mL, confirmation of persisters (regrown, re-exposed): 1 × 10^2 CFU/mL
[1]; BK18, 24 h
  CFU/mL, generation of persisters: 5 × 10^3 CFU/mL
  CFU/mL, confirmation of persisters (regrown, re-exposed): 6 × 10^2 CFU/mL
[1]
  Drop in CFU at the end of 4 h treatment: 5 log
[2]; B9470, 0 h
  CFU/mL, generation of persisters: 3.2 × 10^7 CFU/mL
  CFU/mL, confirmation of persisters (regrown, re-exposed): 1 × 10^7 CFU/mL
[2]; B9470, 2 h
  CFU/mL, generation of persisters: 1 × 10^7 CFU/mL
  CFU/mL, confirmation of persisters (regrown, re-exposed): 9 × 10^4 CFU/mL
[2]; B9470, 4 h
  CFU/mL, generation of persisters: 2.3 × 10^6 CFU/mL
  CFU/mL, confirmation of persisters (regrown, re-exposed): 4 × 10^3 CFU/mL
[2]; B9470, 8 h
  CFU/mL, generation of persisters: 5 × 10^5 CFU/mL
  CFU/mL, confirmation of persisters (regrown, re-exposed): 6 × 10^2 CFU/mL
[2]; B9470, 24 h
  CFU/mL, generation of persisters: 3 × 10^6 CFU/mL
  CFU/mL, confirmation of persisters (regrown, re-exposed): 5 × 10^3 CFU/mL
